Assay results from patent US20250368666A1, “INDAZOLE COMPOUNDS” (TYRA BIOSCIENCES, INC., priority 2022, published 2025).
Counter-ions that a name gives are not always drawn. Like-named read-outs stand apart in the source and are kept apart here.

Columns and labels:
FGFR1 = biological target: T1, FGFR1 (Homo sapiens, UniProt P11362); test: Kinase binding assay (kinase-tagged T7 phage, affinity beads, qPCR), Kd; settings: read-out: FGFR1 (Kd nM)
T1 construct: made in house; host or cells: E. coli (BL21-derived), T7 phage
In short: (§1)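 Kd obtained by Levenberg–Marquardt Hill-equation fit (slope −1) to qPCR-measured kinase retained on ligand-coated streptavidin beads.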

FGFR2 = biological target: T2, FGFR2 (Homo sapiens, UniProt P21802); test: as above; settings: read-out: FGFR2 (Kd nM)
T2 construct: made in house; host or cells: E. coli (BL21-derived), T7 phage
In short: as §1

FGFR3 = biological target: T3, FGFR3 (Homo sapiens, UniProt P22607); test: as above; settings: read-out: FGFR3 (Kd nM)
T3 construct: made in house; host or cells: E. coli (BL21-derived), T7 phage
In short: as §1

FGFR3 (V555M) = biological target: T4, FGFR3 (V555M) (Homo sapiens, UniProt P22607, V555M); test: as above; settings: V555M mutant; read-out: FGFR3 (V555M) (Kd nM)
T4 construct: made in house; host or cells: E. coli (BL21-derived), T7 phage
In short: as §1

FGFR4 = biological target: T5, FGFR4 (Homo sapiens, UniProt P22455); test: as above; settings: read-out: FGFR4 (Kd nM)
T5 construct: made in house; host or cells: E. coli (BL21-derived), T7 phage
In short: as §1

[1] = tested on: HuH7 cell line (FGF19 amplification); test: Cancer cell line cell viability assay (Cell Titer-Glo), 120 hr; format: cell-based; settings: Homo sapiens, Huh-7
Excerpt: Experimental Purpose: To detect the change of intracellular ATP by Cell Titer-Glo® and to evaluate the inhibitory effect of the compounds on cancer cell lines by determining the in vitro IC50 value of the compounds.
Cell Titer-Glo® 2.0 Luminescent cell viability assay reagent was purchased from Promega (Madison, WI). KG-1, KATO-III, and MDA-MB-453 cell lines were purchased from American Type Culture Collection (Manassas, VA). RT112/84 cell line was purchased from Millipore-Sigma (St. Louis, MO). HuH7 cells were purchased from Seikisui Xenotech (Kansas City, KS). RT112/84 and MDA-MB-453 cells were cultured in RPMI1640 media supplemented with 10% fetal bovine serum. KG-1 and KATO-III cell lines were cultured in IMDM media supplemented with 20% FBS. HuH7 cells were cultured in IMDM media supplemented with 10% FBS. Cultures were maintained at 37° C. in a humidified atmosphere of 5% CO2 and 95% air.
Cell Viability Assay Procedure: Cells were plated in 96-well clear bottom/white plates (Corning #3903) at a range of densities depending on the optimal assay window (5,000-20,000 cells/well in […] of media), incubated overnight. The next day, test compound DMSO stock solutions were made at 10 mM and […] final concentration. Compounds were then added to cells in a 9-dose, 4-fold dilution series starting at 3 μM with an HP 300e Digital Dispenser (each dose was applied in triplicate). DMSO was backfilled to each well up to 301 nL total volume of test compound+DMSO, and a total of 301 nL DMSO was added to a control/no test compound well in triplicate. The cells in cell culture plates were incubated with the compounds at 37° C. and 5% CO2 for 72 hours-120 hours depending on the cell line. Then 50 μl of Cell Titer Glo 2.0 reagent was added to each well of the cell culture plates. The contents were covered from light and mixed on an orbital shaker at room temperature for minimum of 10 min. Luminescence was recorded by a Clariostar Plus Microplate Reader (BMG Labtech, Cary, NC). Cells were assessed as a percentage of DMSO only treated control cells. Curves were plotted and IC50 values were calculated using the GraphPad Prism 9 program based on a sigmoidal dose-response equation (log (inhibitor) vs. response—Variable slope, 4-parameter).

[2] = kinase binding assay, 11-point 3-fold dilution series

T2 sequence (P21802 22-821): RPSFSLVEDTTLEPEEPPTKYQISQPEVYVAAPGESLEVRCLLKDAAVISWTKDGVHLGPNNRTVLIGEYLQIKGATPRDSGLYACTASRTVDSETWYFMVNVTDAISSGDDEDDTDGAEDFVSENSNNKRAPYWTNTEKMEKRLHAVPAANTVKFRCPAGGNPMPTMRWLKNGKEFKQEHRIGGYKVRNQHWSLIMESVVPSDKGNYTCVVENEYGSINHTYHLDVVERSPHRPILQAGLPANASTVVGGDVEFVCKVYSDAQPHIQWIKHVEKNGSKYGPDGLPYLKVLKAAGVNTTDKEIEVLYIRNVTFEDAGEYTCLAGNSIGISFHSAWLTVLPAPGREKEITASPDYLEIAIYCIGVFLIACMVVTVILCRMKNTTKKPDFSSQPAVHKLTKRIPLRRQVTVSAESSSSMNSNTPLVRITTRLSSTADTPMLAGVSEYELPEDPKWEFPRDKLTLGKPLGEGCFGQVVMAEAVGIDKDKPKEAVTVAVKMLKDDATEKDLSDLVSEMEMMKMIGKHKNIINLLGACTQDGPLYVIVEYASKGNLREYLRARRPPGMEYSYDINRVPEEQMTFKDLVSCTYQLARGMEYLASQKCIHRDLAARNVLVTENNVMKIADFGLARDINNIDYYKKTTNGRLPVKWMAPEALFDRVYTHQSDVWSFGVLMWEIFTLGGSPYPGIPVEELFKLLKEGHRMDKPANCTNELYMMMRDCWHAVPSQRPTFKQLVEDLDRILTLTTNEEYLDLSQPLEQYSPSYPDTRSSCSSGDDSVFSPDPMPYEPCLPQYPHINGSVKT
T4 sequence (P22607 23-806 V555M): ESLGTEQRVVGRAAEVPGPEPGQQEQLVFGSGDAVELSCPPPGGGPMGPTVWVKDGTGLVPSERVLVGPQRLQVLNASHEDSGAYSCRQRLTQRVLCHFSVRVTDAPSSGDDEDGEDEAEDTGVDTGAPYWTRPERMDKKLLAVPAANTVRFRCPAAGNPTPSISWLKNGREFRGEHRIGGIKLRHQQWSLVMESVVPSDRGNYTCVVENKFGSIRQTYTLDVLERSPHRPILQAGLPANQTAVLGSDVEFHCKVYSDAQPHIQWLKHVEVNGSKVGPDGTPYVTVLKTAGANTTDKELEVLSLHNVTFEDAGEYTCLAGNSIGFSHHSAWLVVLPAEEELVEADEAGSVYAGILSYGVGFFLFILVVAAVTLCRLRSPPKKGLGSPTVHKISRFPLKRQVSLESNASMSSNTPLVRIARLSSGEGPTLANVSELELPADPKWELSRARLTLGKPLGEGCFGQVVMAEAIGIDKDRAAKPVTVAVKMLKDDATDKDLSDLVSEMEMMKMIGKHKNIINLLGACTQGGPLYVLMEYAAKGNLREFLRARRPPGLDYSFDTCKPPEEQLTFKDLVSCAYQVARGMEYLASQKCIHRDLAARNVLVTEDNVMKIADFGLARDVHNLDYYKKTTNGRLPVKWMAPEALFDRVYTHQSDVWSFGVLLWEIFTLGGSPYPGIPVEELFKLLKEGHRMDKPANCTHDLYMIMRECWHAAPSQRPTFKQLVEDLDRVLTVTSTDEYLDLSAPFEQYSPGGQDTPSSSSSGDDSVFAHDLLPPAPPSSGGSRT
T3 sequence (P22607 23-806): as the sequence (P22607 23-806 V555M) above, with M533V counted along it
T1 sequence (P11362 22-822): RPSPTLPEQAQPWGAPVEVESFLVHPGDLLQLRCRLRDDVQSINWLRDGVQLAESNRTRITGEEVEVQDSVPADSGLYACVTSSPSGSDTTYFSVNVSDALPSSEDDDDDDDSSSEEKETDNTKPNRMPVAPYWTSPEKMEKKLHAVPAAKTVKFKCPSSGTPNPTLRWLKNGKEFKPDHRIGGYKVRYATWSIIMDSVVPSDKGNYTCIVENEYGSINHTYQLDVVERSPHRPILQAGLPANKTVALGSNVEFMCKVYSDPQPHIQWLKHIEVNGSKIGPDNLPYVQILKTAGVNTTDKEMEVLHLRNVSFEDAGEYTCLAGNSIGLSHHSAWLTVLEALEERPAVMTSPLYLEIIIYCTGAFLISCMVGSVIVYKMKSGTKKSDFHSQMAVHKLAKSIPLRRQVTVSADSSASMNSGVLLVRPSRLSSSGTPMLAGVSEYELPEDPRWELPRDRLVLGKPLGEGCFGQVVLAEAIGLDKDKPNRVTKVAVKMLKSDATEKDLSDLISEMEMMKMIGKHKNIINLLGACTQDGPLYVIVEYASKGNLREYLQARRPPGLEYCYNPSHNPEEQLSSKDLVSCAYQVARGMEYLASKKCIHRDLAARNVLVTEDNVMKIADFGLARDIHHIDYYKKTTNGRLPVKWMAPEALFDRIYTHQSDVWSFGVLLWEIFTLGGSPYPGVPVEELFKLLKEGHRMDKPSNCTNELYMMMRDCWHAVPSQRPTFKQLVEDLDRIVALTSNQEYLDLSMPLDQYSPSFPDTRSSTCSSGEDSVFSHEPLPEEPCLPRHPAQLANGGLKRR
T5 sequence (P22455 22-802): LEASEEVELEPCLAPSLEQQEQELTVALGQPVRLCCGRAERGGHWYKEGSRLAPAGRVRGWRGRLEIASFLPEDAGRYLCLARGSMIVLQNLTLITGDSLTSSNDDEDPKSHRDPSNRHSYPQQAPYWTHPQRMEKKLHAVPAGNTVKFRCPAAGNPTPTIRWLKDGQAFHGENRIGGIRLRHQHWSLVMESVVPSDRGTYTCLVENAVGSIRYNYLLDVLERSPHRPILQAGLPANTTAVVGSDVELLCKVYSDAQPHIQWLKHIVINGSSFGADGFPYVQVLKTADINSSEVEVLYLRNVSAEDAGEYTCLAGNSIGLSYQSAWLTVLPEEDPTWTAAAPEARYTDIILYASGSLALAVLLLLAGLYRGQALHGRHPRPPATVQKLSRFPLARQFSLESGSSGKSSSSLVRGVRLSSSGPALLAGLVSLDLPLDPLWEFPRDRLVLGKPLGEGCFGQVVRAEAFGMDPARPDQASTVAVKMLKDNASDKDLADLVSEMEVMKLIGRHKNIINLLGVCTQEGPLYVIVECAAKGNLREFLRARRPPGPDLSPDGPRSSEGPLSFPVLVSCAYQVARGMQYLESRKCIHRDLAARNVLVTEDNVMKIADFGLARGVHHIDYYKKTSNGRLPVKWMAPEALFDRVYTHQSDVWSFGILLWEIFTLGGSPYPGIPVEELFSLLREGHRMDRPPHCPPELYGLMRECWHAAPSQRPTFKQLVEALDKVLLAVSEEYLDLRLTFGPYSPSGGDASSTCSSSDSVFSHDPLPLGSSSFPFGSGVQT

SMILES	Kd (FGFR1) [nM]	Kd (FGFR2) [nM]	Kd (FGFR3) [nM]	Kd (FGFR3 (V555M)) [nM]	Kd (FGFR4) [nM]	IC50 [1] [nM]	Kd (FGFR1; [2]) [nM]	Kd (FGFR2; [2]) [nM]	Kd (FGFR3; [2]) [nM]	Kd (FGFR4; [2]) [nM]
COc1cc2[nH]nc(-c3cnc(N4CC(C)(N(C)C)C4)c(S(C)(=O)=O)c3)c2cc1O[C@H](C)c1c(Cl)cncc1Cl [Example 1, (R)-1-(5-(5-(1-(3,5-dichloropyridin-4-yl)ethoxy)-6-methoxy-1H-indazol-3-y1)-3-(methylsulfonyl)pyridin-2-yl)-N,N,3-trimethylazetidin-3-amine]	1 to 50	1 to 50	1 to 50	1 to 50	1 to 50	0.1 to 50	–	–	–	–
C[C@@H](Oc1cc2c(-c3cnc(N4CC(C)(CP(C)(C)=O)C4)c(C#N)c3)n[nH]c2cc1F)c1c(Cl)cncc1Cl [Example 11, (R)-5-(5-(1-(3,5-dichloropyridin-4-yl)ethoxy)-6-fluoro-1H-indazol-3-yl)-2-(3-((dimethylphosphoryl)methyl)-3-methylazetidin-1-yl)nicotinonitrile]	50 to 300	1 to 50	1 to 50	1 to 50	1 to 50	0.1 to 50	–	–	–	–
COc1cc2[nH]nc(-c3cnc(N4CC(C)(NC5CCC5)C4)c(C#N)c3)c2cc1O[C@H](C)c1c(Cl)cncc1Cl [Example 12, (R)-2-(3-(cyclobutylamino)-3-methylazetidin-1-yl)-5-(5-(1-(3,5-dichloropyridin-4-yl)ethoxy)-6-methoxy-1H-indazol-3-yl)nicotinonitrile]	1 to 50	1 to 50	1 to 50	1 to 50	1 to 50	0.1 to 50	–	–	–	–
Cc1ncc(Cl)c([C@@H](C)Oc2ccc3[nH]nc(-c4cnc(N5CC(C)(OC(C)C)C5)c(C#N)c4)c3c2)c1Cl [Example 13, 5-[5-[(1R)-1-(3,5-dichloro-2-methyl-4-pyridyl)ethoxy]-1H-indazol-3-yl]-2-(3-isopropoxy-3-methyl-azetidin-1-yl)pyridine-3-carbonitrile]	> 1000	> 1000	50 to 300	50 to 300	1 to 50	200 to 1000	–	–	–	–
COc1cc2[nH]nc(-c3cc(C#N)c(N4CC(C)(NCC5CC5)C4)nn3)c2cc1O[C@H](C)c1c(Cl)cncc1Cl [Example 347, (R)-3-(3-((cyclopropyl-methyl)amino)-3-methylazetidin-1-yl)-6-(5-(1-(3,5-dichloropyridin-4-yl)ethoxy)-6-methoxy-1H-indazol-3-yl)pyridazine-4-carbonitrile]	1 to 50	1 to 50	1 to 50	–	1 to 50	0.1 to 50	–	–	–	–
CCC1(NCC2CC2)CN(c2ncc(-c3n[nH]c4cc(OC)c(O[C@H](C)c5c(Cl)cncc5Cl)cc34)cc2C#N)C1 [Example 348, (R)-2-(3-((Cyclopropylmethyl)amino)-3-ethylazetidin-1-yl)-5-(5-(1-(3,5-dichloropyridin-4-yl)ethoxy)-6-methoxy-1H-indazol-3-yl)nicotinonitrile dihydrochloride]	1 to 50	1 to 50	1 to 50	–	1 to 50	0.1 to 50	–	–	–	–
COc1cc2[nH]nc(-c3cc(C#N)c(N4CC(C)(N(C)C)C4)nn3)c2cc1O[C@H](C)c1c(Cl)cncc1Cl [Example 349, (R)-6-(5-(1-(3,5-dichloropyridin-4-yl)ethoxy)-6-methoxy-1H-indazol-3-yl)-3-(3-(dimethylamino)-3-methylazetidin-1-yl)pyridazine-4-carbonitrile]	1 to 50	1 to 50	1 to 50	–	1 to 50	0.1 to 50	–	–	–	–
COc1cc2[nH]nc(-c3cnc(N4CC(CC#N)(NCC5CC5)C4)c(C#N)c3)c2cc1O[C@H](C)c1c(Cl)cnc(C)c1Cl [Example 350, (R)-2-(3-(Cyanomethyl)-3-((cyclopropyl-methyl)ami-no)azetidin-1-yl)-5-(5-(1-(3,5-dichloro-2-methylpyridin-4-yl)ethoxy)-6-methoxy-1H-indazol-3-yl)nicotinonitrile]	50 to 300	1 to 50	1 to 50	–	1 to 50	0.1 to 50	–	–	–	–
COc1cc2[nH]nc(-c3cnc(N4CC(C)(NCC(C)C)C4)c(C#N)c3)c2cc1O[C@H](C)c1c(Cl)cnc(C)c1Cl [Example 355, 5-[5-[(1R)-1-(3,5-dichloro-2-methyl-4-pyridyl)ethoxy]-6-methoxy-1H-indazol-3-yl]-2-[3-(isobutylamino)-3-methyl-azetidin-1-yl]pyridine-3-carbonitrile]	1 to 50	50 to 300	1 to 50	–	1 to 50	50 to 200	–	–	–	–
COc1cc2[nH]nc(-c3cnc(N4CC(CC#N)(N(C)C(C)C)C4)c(C#N)c3)c2cc1O[C@H](C)c1c(Cl)cncc1Cl [Example 358, (R)-2-(3-(cyanomethyl)-3-(isopropyl(methyl)-amino)azetidin-1-yl)-5-(5-(1-(3,5-dichloropyridin-4-yl)ethoxy)-6-methoxy-1H-indazol-3-yl)nicotinonitrile]	1 to 50	50 to 300	1 to 50	–	1 to 50	0.1 to 50	–	–	–	–
COc1cc2[nH]nc(-c3cnc(N4CC(N)(Cc5ccn(C)n5)C4)c(C#N)c3)c2cc1O[C@H](C)c1c(Cl)cncc1Cl [Example 366, (R)-2-(3-amino-3-((1-methyl-1H-pyrazol-3-yl)methyl)azetidin-1-yl)-5-(5-(1-(3,5-dichloropyridin-4-yl)ethoxy)-6-methoxy-1H-indazol-3-yl)nicotinonitrile]	1 to 50	1 to 50	1 to 50	–	1 to 50	0.1 to 50	–	–	–	–
COc1cc2[nH]nc(-c3cnc(N4CCC(C)(N)CC4)c(C#N)c3)c2cc1O[C@H](C)c1c(Cl)cncc1Cl [Example 368, (R)-2-(4-amino-4-methylpiperidin-1-yl)-5-(5-(1-(3,5-dichloropyridin-4-yl)ethoxy)-6-methoxy-1H-indazol-3-yl)nicotinonitrile]	1 to 50	1 to 50	1 to 50	–	1 to 50	0.1 to 50	–	–	–	–
COc1cc2[nH]nc(-c3cnc(N4CC(C)(O)C4)c(C#N)c3)c2cc1O[C@H](C)c1c(Cl)cncc1Cl [Example 370, 5-[5-[(1R)-1-(3,5-dichloro-4-pyridyl)ethoxy]-6-methoxy-1H-indazol-3-yl]-2-(3-hydroxy-3-methyl-azetidin-1-yl)pyridine-3-carbonitrile]	1 to 50	1 to 50	1 to 50	–	1 to 50	0.1 to 50	–	–	–	–
COc1cc2[nH]nc(-c3cnc(N4CC[C@@](C)(NCC5CC5)C4)c(C#N)c3)c2cc1O[C@H](C)c1c(Cl)cncc1Cl [Example 409, 2-((R)-3-((cyclo-propylmethyl)-amino)-3-methylpyrrolidin-1-yl)-5-(5-((R)-1-(3,5-dichloropyridin-4-yl)ethoxy)-6-methoxy-1H-indazol-3-yl)nicotinonitrile]	–	–	–	–	–	0.1 to 50	1 to 50	1 to 50	1 to 50	1 to 50
COc1cc2[nH]nc(-c3cnc(N4CC[C@](C)(NCC5CC5)C4)c(C#N)c3)c2cc1O[C@H](C)c1c(Cl)cncc1Cl [Example 410, 2-((S)-3-((cyclopropyl-methyl)-amino)-3-methylpyrrolidin-1-yl)-5-(5-((R)-1-(3,5-dichloropyridin-4-yl)ethoxy)-6-methoxy-1H-indazol-3-yl)nicotinonitrile]	–	–	–	–	–	0.1 to 50	1 to 50	1 to 50	1 to 50	1 to 50
